# Results: US7659284B2, “Thiazolopyridine kinase inhibitors” (Janssen Pharmaceutica NV, priority 2004, dated 2010)
# Biological target: T1, EGFR (Homo sapiens, UniProt P00533)
# T1 construct: started at nucleotide 2189 (corresponding to amino acid 667) and ended at the termination codon; made in house; host or cells: Sf9 insect cells (baculovirus)
# Assay: EGFR Kinase Assay (GST-EGFR, 33P-ATP, Streptavidin Flashplate)
# Assay type: biochemical
# Details: GST-EGFR intracellular portion, 5 μM ATP
# Description: The EGFR kinase used was a fusion of Glutathione-S-Transferase (GST) and a PCR amplified intracellular portion of EGFR (NM_005228). The intracellular portion of EGFR started at nucleotide 2189 (corresponding to amino acid 667) and ended at the termination codon. The portion was PCR amplified with primers that added the lambda attB sequences to each end, recombined into an entry vector, then into a GST destination vector (as described in Gateway Technologies Manual by Invitrogen Corporation, Carlsbad, Calif.).
# The destination vector was recombined in the DH10BAC strain of bacteria to produce a bacmid. The bacmid was transfected into Sf 9 cells and the supernatant containing the baculovirus was collected. The GSTEGFR protein was purified using large cultures of Sf 9 cells infected with stock virus. After an appropriate period of time, the cells were collected and lysed. The GSTEGFR was then purified from the lysate on Glutathione-Sepharose columns (as described by Amersham Biosciences, Buckinghamshire, United Kingdom).
# The EGFR substrate was prepared by biotinylating polyGluTyr (128 mg) (Sigma, St. Louis, Mo.) in a 1×PBS buffer incubated together with a 12-fold molar excess of Sulfo-NHS-LC-Biotin on ice for at least 2 hrs. The free biotin was separated from the biotinylated polyGluTyr on a gel filtration column.
# A mixture of a 10× kinase buffer (500 mM Tris at pH 8.0, 100 mM Magnesium Chloride and 1 mM Sodium Vanadate), DTT (1 mM final from 500 mM stock), ATP (5 μM final from 10 mM stock), biotinylated polyGluTyr (10 μg/μL stock), γ-^33P ATP (10 μCi/μL stock) and water was added to each well (90 μL/well) of a Streptavidin Flashplate (Perkin Elmer, Wellesley, Mass.).
# Test compound in 100% DMSO (2 μL) was added to the appropriate wells. Diluted GSTEGFR (1:300 dilution in 50 mM Tris at pH 8.0 and 0.1% bovine serum albumin) (10 μL) was added to the wells to initiate the reactions.
# The plates were incubated at 30° C. for 1 hr with shaking. The reacted contents were removed and the plates were sequentially washed three times with a 1×PBS stop buffer (300 μL without Magnesium and Calcium) and 100 mM EDTA. After the final wash, the same stop buffer (200 μL) was added to the wells. The plates were then sealed and read on the TopCount scintillation counter.
# Test compounds were assayed in triplicate at 16 concentrations at half-log dilutions starting at 200 uM. A maximum and minimum signal for the assay was determined on each plate. The percent inhibition of a test compound was calculated accord to the formula
# For a series of test concentrations, the IC50 was derived by graphing percent inhibition against the log of the concentrations tested for a given compound. For those compounds without an IC50, the percent inhibition results are shown at a test concentration of 2 μM.
# T1 sequence (P00533 667-1210 limits assumed): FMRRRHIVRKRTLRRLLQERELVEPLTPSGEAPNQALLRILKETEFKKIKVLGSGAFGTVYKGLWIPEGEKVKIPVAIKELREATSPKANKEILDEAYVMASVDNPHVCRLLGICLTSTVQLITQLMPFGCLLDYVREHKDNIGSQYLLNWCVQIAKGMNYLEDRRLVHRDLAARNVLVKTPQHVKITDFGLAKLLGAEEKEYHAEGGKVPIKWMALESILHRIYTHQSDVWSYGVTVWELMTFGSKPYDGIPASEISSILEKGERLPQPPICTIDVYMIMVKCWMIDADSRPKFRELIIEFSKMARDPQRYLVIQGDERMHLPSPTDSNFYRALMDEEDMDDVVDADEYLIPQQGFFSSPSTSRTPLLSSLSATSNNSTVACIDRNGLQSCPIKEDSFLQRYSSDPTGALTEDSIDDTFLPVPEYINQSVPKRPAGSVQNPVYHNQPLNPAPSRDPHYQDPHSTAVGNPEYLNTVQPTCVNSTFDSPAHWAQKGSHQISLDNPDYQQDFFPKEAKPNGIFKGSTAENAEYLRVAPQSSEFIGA
row,SMILES,IC50
1,"CCc1nccn1Cc1ccc(Nc2nc3ncc(C#N)c(Nc4ccc(F)c(Cl)c4)c3s2)cc1 [Cpd 1, 7-(3-chloro-4-fluoro-phenylamino)-2-[4-(2-ethyl-imidazol-1-ylmethyl)-phenylamino]-thiazolo[4,5-b]pyridine-6-carbonitrile]",22.6 nM
2,"CN(C)Cc1ccc(Nc2nc3ncc(C#N)c(Nc4ccc(F)c(Cl)c4)c3s2)cc1 [Cpd 3, 7-(3-chloro-4-fluoro-phenylamino)-2-(4-dimethylaminomethyl-phenylamino)-thiazolo[4,5-b]pyridine-6-carbonitrile]",43.7 nM
3,"COCCN(CCOC)Cc1ccc(Nc2nc3ncc(C#N)c(Nc4ccc(F)c(Cl)c4)c3s2)cc1 [Cpd 4, 2-(4-{[bis-(2-methoxy-ethyl)-amino]-methyl}-phenylamino)-7-(3-chloro-4-fluoro-phenylamino)-thiazolo[4,5-b]pyridine-6-carbonitrile]",49 nM
4,"CN(Cc1ccc(Nc2nc3ncc(C#N)c(Nc4ccc(F)c(Cl)c4)c3s2)cc1)C[C@H]1CCCO1 [Cpd 14, 7-(3-chloro-4-fluoro-phenylamino)-2-[(4-{methyl-[(2R)-tetrahydro-furan-2-ylmethyl]-amino}-methyl)-phenylamino]-thiazolo[4,5-b]pyridine-6-carbonitrile]",29.3 nM
5,"N#Cc1cnc2nc(Nc3ccc(CN4CCOCC4)cc3)sc2c1Nc1ccc(F)c(Cl)c1 [Cpd 2, 7-(3-chloro-4-fluoro-phenylamino)-2-(4-morpholin-4-ylmethyl-phenylamino)-thiazolo[4,5-b]pyridine-6-carbonitrile]",78 nM
6,"CN(Cc1ccc(Nc2nc3ncc(C#N)c(Nc4ccc(F)c(Cl)c4)c3s2)cc1)C1CCOCC1 [Cpd 16, 7-(3-chloro-4-fluoro-phenylamino)-2-(4-{[methyl-(tetrahydro-pyran-4-yl)-amino]-methyl}-phenylamino)-thiazolo[4,5-b]pyridine-6-carbonitrile]",76.4 nM
7,"N#Cc1cnc2nc(NCCN3CCOCC3)sc2c1Nc1cccc(Cl)c1 [Cpd 12, 7-(3-chloro-phenylamino)-2-(2-morpholin-4-yl-ethylamino)-thiazolo[4,5-b]pyridine-6-carbonitrile]",15800 nM
8,"C#Cc1cccc(Nc2c(C#N)cnc3nc(Nc4ccc(CN5CCC[C@H]5CO)cc4)sc23)c1 [Cpd 11, 7-(3-ethynyl-phenylamino)-2-{4-[(2S)2-hydroxymethyl-pyrrolidin-1-ylmethyl]-phenylamino}-thiazolo[4,5-b]pyridine-6-carbonitrile]",41.7 nM
9,"C#Cc1cccc(Nc2c(C#N)cnc3nc(NCCN4CCOCC4)sc23)c1 [Cpd 13, 7-(3-ethynyl-phenylamino)-2-(2-morpholin-4-yl-ethylamino)-thiazolo[4,5-b]pyridine-6-carbonitrile]",3280 nM
10,"CN(Cc1ccc(Nc2nc3ncc(C#N)c(Nc4ccc(F)c(Cl)c4)c3s2)cc1)C[C@@H]1CCCO1 [Cpd 15, 7-(3-chloro-4-fluoro-phenylamino)-2-[(4-{methyl-[(2S)-tetrahydro-furan-2-ylmethyl]-amino}-methyl)-phenylamino]-thiazolo[4,5-b]pyridine-6-carbonitrile]",76.1 nM
11,"COCCN(CCOC)S(=O)(=O)c1ccc(Nc2nc3ncc(C#N)c(Nc4ccc(F)c(Cl)c4)c3s2)cc1 [Cpd 5, 4-[7-(3-chloro-4-fluoro-phenylamino)-6-cyano-thiazolo[4,5-b]pyridin-2-ylamino]-N,N-bis-(2-methoxy-ethyl)-benzenesulfonamide]",63.7 nM
12,"N#Cc1cnc2nc(Nc3ccc(CN4CCC[C@H]4CO)cc3)sc2c1Nc1ccc(F)c(Cl)c1 [Cpd 6, 7-(3-chloro-4-fluoro-phenylamino)-2-{4-[(2S)-2-hydroxymethyl-pyrrolidin-1-ylmethyl]-phenylamino}-thiazolo[4,5-b]pyridine-6-carbonitrile]",53 nM
13,"C#Cc1cccc(Nc2c(C#N)cnc3nc(NCCCN4CCOCC4)sc23)c1 [Cpd 9, 7-(3-ethynyl-phenylamino)-2-(3-morpholin-4-yl-propylamino)-thiazolo[4,5-b]pyridine-6-carbonitrile]",2630 nM
14,"N#Cc1cnc2nc(Nc3ccc(S(=O)(=O)NCCN4CCOCC4)cc3)sc2c1Nc1ccc(F)c(Cl)c1 [Cpd 7, 4-[7-(3-chloro-4-fluoro-phenylamino)-6-cyano-thiazolo[4,5-b]pyridin-2-ylamino]-N-(2-morpholin-4-yl-ethyl)-benzenesulfonamide]",28.5 nM
15,"N#Cc1cnc2nc(NCCCN3CCOCC3)sc2c1Nc1ccc(F)c(Cl)c1 [Cpd 8, 7-(3-chloro-4-fluoro-phenylamino)-2-(3-morpholin-4-yl-propylamino)-thiazolo[4,5-b]pyridine-6-carbonitrile]",2630 nM

# Results, then the compound that gave them:
row,IC50,SMILES
1,1450 nM,"N#Cc1cnc2nc(Nc3ccc(CN4CCOCC4)cc3)sc2c1Nc1ccc(Cl)cc1Cl [Cpd 34, 7-(2,4-dichloro-phenylamino)-2-(4-morpholin-4-ylmethyl-phenylamino)-thiazolo[4,5-b]pyridine-6-carbonitrile]"
2,79.5 nM,"N#Cc1cnc2nc(Nc3ccc(CN4CCOCC4)cc3)sc2c1Nc1cccc(Cl)c1 [Cpd 19, 7-(3-chloro-phenylamino)-2-(4-morpholin-4-ylmethyl-phenylamino)-thiazolo[4,5-b]pyridine-6-carbonitrile]"
3,207 nM,"N#Cc1cnc2nc(Nc3ccc(O)nc3)sc2c1Nc1ccc(F)c(Cl)c1 [Cpd 27, 7-(3-chloro-4-fluoro-phenylamino)-2-(6-hydroxy-pyridin-3-ylamino)-thiazolo[4,5-b]pyridine-6-carbonitrile]"
4,60.4 nM,"N#Cc1cnc2nc(Nc3ccc(CN4CCC(N)CC4)cc3)sc2c1Nc1ccc(F)c(Cl)c1 [Cpd 31, 2-[4-(4-amino-piperidin-1-ylmethyl)-phenylamino]-7-(3-chloro-4-fluoro-phenylamino)-thiazolo[4,5-b]pyridine-6-carbonitrile]"
5,327 nM,"N#Cc1cnc2nc(Nc3ccc(Cl)nc3)sc2c1Nc1ccc(F)c(Cl)c1 [Cpd 28, 7-(3-chloro-4-fluoro-phenylamino)-2-(6-chloro-pyridin-3-ylamino)-thiazolo[4,5-b]pyridine-6-carbonitrile]"
6,85.7 nM,"CN(C)Cc1ccc(Nc2nc3ncc(C#N)c(Nc4ccc(F)c(Cl)c4)c3s2)cc1Cl [Cpd 18, 2-(3-chloro-4-dimethylaminomethyl-phenylamino)-7-(3-chloro-4-fluoro-phenylamino)-thiazolo[4,5-b]pyridine-6-carbonitrile]"
7,44.6 nM,"N#Cc1cnc2nc(Nc3ccc(CNC[C@H]4CCCO4)cc3)sc2c1Nc1ccc(F)c(Cl)c1 [Cpd 21, 7-(3-chloro-4-fluoro-phenylamino)-2-[4-({[(2R)-tetrahydro-furan-2-ylmethyl]-amino}-methyl)-phenylamino]-thiazolo[4,5-b]pyridine-6-carbonitrile]"
8,158 nM,"COc1ccc(Nc2nc3ncc(C#N)c(Nc4ccc(F)c(Cl)c4)c3s2)cn1 [Cpd 26, 7-(3-chloro-4-fluoro-phenylamino)-2-(6-methoxy-pyridin-3-ylamino)-thiazolo[4,5-b]pyridine-6-carbonitrile]"
9,67.7 nM,"N#Cc1cnc2nc(Nc3ccc(NCCN)nc3)sc2c1Nc1ccc(F)c(Cl)c1 [Cpd 30, 2-[6-(2-amino-ethylamino)-pyridin-3-ylamino]-7-(3-chloro-4-fluoro-phenylamino)-thiazolo[4,5-b]pyridine-6-carbonitrile]"
10,853 nM,"N#Cc1cnc2nc(NCc3ccc(CN4CCOCC4)cc3)sc2c1Nc1ccc(F)c(Cl)c1 [Cpd 22, 7-(3-chloro-4-fluoro-phenylamino)-2-(4-morpholin-4-ylmethyl-benzylamino)-thiazolo[4,5-b]pyridine-6-carbonitrile]"
11,69.6 nM,"N#Cc1cnc2nc(Nc3ccc(NCCCN4CCOCC4)nc3)sc2c1Nc1ccc(F)c(Cl)c1 [Cpd 29, 7-(3-chloro-4-fluoro-phenylamino)-2-[6-(3-morpholin-4-yl-propylamino)-pyridin-3-ylamino]-thiazolo[4,5-b]pyridine-6-carbonitrile]"
